{"source": "patent US9315544B2", "about": "“Method of treating eosinophilia by administering an immunomodulating peptide” (National Tsing Hua University, priority 2012, dated 2016)", "key": {"[1]": {"system": "mite-induced airway hyperresponsiveness", "assay": "Mite-induced airway hyperresponsiveness, pause enhancement (Penh) by whole-body plethysmography", "assay_type": "in vivo, BALB/c mouse", "description": "(§1) FIG. 4 illustrates experimental design. All groups except control group were immunized with mite crude extract allergen on days 1 and 8, then mite crude extract allergen intratracheally on day 15 in all mite treated group, BALB/c mouse were divided into six groups (1) control group (PBS), (2) mites delivered intratracheally (mIT, mite on day 15) alone, (3) CMP intranasal (eIN, CMP on days 1 to 22) alone, (4) preventive-treatment group (eIN+mIT, CMP on days 1 to 14, mite on day 15) (5) therapy-treatment group (mIT+eIN, mite on day 15, CMP on days 15 to 22), and (6) preventive- and therapeutic-treatment group (eIN+mIT+eIN, CMP on days 1 to 22, mite on day 15).\nFIG. 5 illustrates inhibitory effect of CMP on mite-induced airway hyperresponsiveness. The effect of methacholine (MCh) on pause enhancement (Penh) in mouse exposed to CMP in the presence and absence of mite proteins. Penh was measured in all six treatment groups after stimulation with 6.25, 12.5, or 25 mg/ml MCh for 1 min. The values were presented as a ratio with respect to the baseline Penh (before MCh stimulation) for each group. Each result was expressed as the mean±S.D., n=4. **, P<0.01. ***, P<0.001. […]\nAirway responsiveness was measured in mouse on day 22 (i.e., 1 hour after the last challenge) in conscious, spontaneously breathing mouse using a whole-body plethysmography system (Buxco, Wilmington, N.C., USA) as described before (Maeda T, et al, Eur J Biochem 2002, 269, 307-316). […] The chamber-pressure-time wave was continuously measured via a transducer connected to a computer data acquisition system. After a baseline Penh reading for >3 min, mice were serially exposed to increasing concentrations of nebulized methacholine (MCh) (0, 6.25, 12.5, and 25 mg/ml; Sigma, St Louis, Mo., USA) in PBS for 1 min by inhalation. Penh values, which are measured as changes in enhanced pause, tidal volume, and breathing frequency (breaths/minute) for the first 3 min after the end of MCh nebulization, were averaged and used to compare responses among all six-treatment groups. […]"}, "CCL-11": {"system": "CCL-11", "assay": "Cytokine ELISA of lung protein extract (CCL-11)", "assay_type": "in vivo, BALB/c mouse", "settings": "eIN+mIT, mIT+eIN and eIN+mIT+eIN groups", "description": "as §1\nFIG. 9 illustrates inhibitory effect of CMP on lung protein extract. Lung protein extracts from different groups of mouse were assayed for the indicated cytokines. Data represent one of three independent experiments. Levels of CCL-11, IL-5, IL-13 and IL-17A/F levels in lung protein extracts from mouse from treatment groups were measured by Enzyme-linked immunosorbent assay (ELISA). Each result was expressed as the mean±S.D., n=4. **, P<0.01, ***, P<0.001. […]\nLevels of cytokines from lung protein extract were measured by ELISA. […] The microplates were read at 450 nm with an ELISA reader (Thermo Labsystems, Waltham, Mass., USA). […]"}}, "data": [{"sequence": "NYRWRCKNQN (CMP)", "values": [{"measurement": "AHR, response to increasing dose of inhaled methacholine", "setting": "[1]; CMP intranasal, eIN+mIT, mIT+eIN and eIN+mIT+eIN groups", "result": "significantly decrease"}, {"measurement": "Penh stimulation compared with mite group", "setting": "[1]; eIN+mIT and mIT+eIN groups, 25 mg/ml MCh", "result": "lower stimulation"}, {"measurement": "Penh/baseline ratio change of mIT group compared with CMP group", "setting": "[1]; mIT vs eIN+mIT+eIN group, 12.5 and 25 mg/ml MCh", "result": "much higher"}, {"measurement": "CCL-11 in lung protein extract compared with mIT group", "setting": "CCL-11", "result": "lower concentrations"}]}]}
